Assay results reported in the supplement of paper PMC4237247.

Columns and labels:
HeLa [1] = assay: maximal percent of cells arrested in mitosis within titration; higher = stronger mitotic arrest; conditions: 20 h
Experimental: (§1)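 HeLa cells were treated with a titration of each re-synthesised mitotic inhibitor. Mitotic arrest IC50 comes from a 20 h titration (190 pM to 10 uM) read as % G2/M by Vybrant DyeCycle Green cell cycle profiling on an Acumen cytometer. Cell viability IC50 comes from a 72 h titration (12.2 nM to 100 uM) read by CellTiter-Glo ATP luminescence, with curves fitted in CDD software. The maximal % of cells arrested in mitosis within the titration is also reported.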

HeLa [2] = assay: mitotic arrest IC50 (G2/M DNA content, 20 h); higher = less potent
Experimental: as §1

HeLa [3] = assay: cell viability IC50 (CellTiter-Glo, 72 h); higher = less potent
Experimental: as §1

SMILES	maximal percent (HeLa [1]) [%]	mitotic arrest IC50 (HeLa [2]) [nM]	cell viability IC50 (HeLa [3]) [nM]
COC(=O)Nc1nc2cc(C(=O)c3ccccc3)ccc2[nH]1 [Mebendazole]	76.6	202	222
CC(=O)O[C@H]1C(=O)[C@@]2(C)[C@H]([C@H](OC(=O)c3ccccc3)[C@]3(O)C[C@H](OC(=O)[C@H](O)[C@@H](NC(=O)c4ccccc4)c4ccccc4)C(C)=C1C3(C)C)[C@]1(OC(C)=O)CO[C@@H]1C[C@@H]2O [Taxol]	74	37.1	27.3
O=c1[nH]c(/C=C/c2ccccc2F)nc2ccccc12	49.9	285	720
O=C(CSc1nc2ccc([N+](=O)[O-])cc2s1)c1ccc(Cl)cc1	61.7	9120	12500
CCN(CC)CCN1C(=O)C(=O)C(=C(O)c2ccccc2)C1c1ccccc1F (stereo not drawn)	55.8	4780	6630
COC(=O)Nc1nc2cc(Sc3ccccc3)ccc2[nH]1 [Fenbendazole]	62.5	279	389
CC(=O)Nc1ccc(Nc2nc(-c3c(C)nc4ccccn34)cs2)cc1	65.3	88.5	121
O=c1[nH]c(/C=C/c2ccccc2)nc2ccccc12	61	1350	1160
COC(=O)Nc1nc2cc(C(=O)c3cccs3)ccc2[nH]1 [Nocodazole]	68.5	129	45.6
O=C(O)c1ccccc1SC1CC(=O)N(c2ccc(Br)cc2)C1=O (stereo not drawn)	70.4	2650	2270
COc1cc(-c2onc3ccc(Cl)cc23)cc(OC)c1OC	54.8	539	470
